Key:
[1] = tested on: diabetic patients hospitalized with acute MI; details: IV insulin-glucose infusion in-hospital followed by intensive chronic outpatient insulin, versus standard treatment; cited from earlier work
[2] = tested on: patients with various levels of fasting hypertriglyceridemia; assay: Two multicenter placebo-controlled AMARYL registration studies: lipid data; type: in vivo, human; set-up: Triglycerides % reduction from baseline / Non-HDL Cholesterol Total % reduction from baseline: concentration or dose not given beside the values; Triglycerides Baseline / Triglycerides Endpoint: unit not given beside the values
Excerpt: There is evidence from the literature that use of sulfonylurea (SU) as initial drug treatment of the type 2 patient with DDL exerts a weaker effect on reduction of hypertriglyceridemia, or on increasing HDL-C, than is seen with insulin, and/or that the effects are less durable. In order to compare the effects of Lantus LANTUS (insulin glargine) on fasting TG and non-HDL-C levels with oral agents from the sulfonylurea class, the glimepiride (Amaryl® AMARYL) database at Aventis was examined.

IGT = details: statistically significant; cited from earlier work
[3] = tested on: type 2 diabetic patients already treated with other oral antidiabetic drugs; assay: Study 4014: lipid data, LANTUS versus rosiglitazone; type: in vivo, human; set-up: Triglycerides % reduction from baseline / Triglycerides % reduction from baseline, LANTUS-AVANDIA / Non-HDL Cholesterol Total % reduction from baseline: concentration or dose not given beside the values; Triglycerides Baseline / Triglycerides Endpoint: unit not given beside the values
abnormalities of DDL = details: in vivo; cited from earlier work
[4] = after injection; cited from earlier work

insulin: IV insulin-glucose infusion followed by intensive chronic outpatient treatment with insulin (DIGAMI study)
reduction of all-cause mortality [1]: 28%

CCC1=C(C)CN(C(=O)NCCc2ccc(S(=O)(=O)NC(=O)N[C@H]3CC[C@H](C)CC3)cc2)C1=O [AMARYL, glimepiride]
HDL Baseline ([2]; TG baseline range 200-500): 38 | HDL Endpoint ([2]; TG baseline range 200-500): 39 | Non-HDL Cholesterol Total % reduction from baseline ([2]; TG baseline range 200-500): 3% | Non-HDL Cholesterol Total Baseline ([2]; TG baseline range 200-500): 197 | Non-HDL Cholesterol Total Endpoint ([2]; TG baseline range 200-500): 191 | Triglycerides % reduction from baseline ([2]; TG baseline range 200-500): 12% | Triglycerides Baseline ([2]; TG baseline range 200-500): 299 | Triglycerides Endpoint ([2]; TG baseline range 200-500): 265 | HDL Baseline ([2]; TG baseline range 300-500): 36 | HDL Endpoint ([2]; TG baseline range 300-500): 37 | Non-HDL Cholesterol Total % reduction from baseline ([2]; TG baseline range 300-500): 3% | Non-HDL Cholesterol Total Baseline ([2]; TG baseline range 300-500): 203 | Non-HDL Cholesterol Total Endpoint ([2]; TG baseline range 300-500): 198 | Triglycerides % reduction from baseline ([2]; TG baseline range 300-500): 18% | Triglycerides Baseline ([2]; TG baseline range 300-500): 390 | Triglycerides Endpoint ([2]; TG baseline range 300-500): 321 | HDL Baseline ([2]; TG baseline range 300-1000): 36 | HDL Endpoint ([2]; TG baseline range 300-1000): 37 | Non-HDL Cholesterol Total % reduction from baseline ([2]; TG baseline range 300-1000): 5% | Non-HDL Cholesterol Total Baseline ([2]; TG baseline range 300-1000): 209 | Non-HDL Cholesterol Total Endpoint ([2]; TG baseline range 300-1000): 198 | Triglycerides % reduction from baseline ([2]; TG baseline range 300-1000): 23% | Triglycerides Baseline ([2]; TG baseline range 300-1000): 459 | Triglycerides Endpoint ([2]; TG baseline range 300-1000): 350 | HDL Baseline ([2]; TG baseline range 500-1000): 37 | HDL Endpoint ([2]; TG baseline range 500-1000): 39 | Non-HDL Cholesterol Total % reduction from baseline ([2]; TG baseline range 500-1000): 10% | Non-HDL Cholesterol Total Baseline ([2]; TG baseline range 500-1000): 224 | Non-HDL Cholesterol Total Endpoint ([2]; TG baseline range 500-1000): 200 | Triglycerides % reduction from baseline ([2]; TG baseline range 500-1000): 33% | Triglycerides Baseline ([2]; TG baseline range 500-1000): 662 | Triglycerides Endpoint ([2]; TG baseline range 500-1000): 445 | LDL Baseline ([2]; TG baseline range All): 142 | LDL Endpoint ([2]; TG baseline range All): 140

CN(C)C(=N)N=C(N)N [Metformin]
reduction in the rate of progression to type 2 DM (IGT): 31%

CN(CCOc1ccc(CC2SC(=O)NC2=O)cc1)c1ccccn1 (stereo not shown) [AVANDIA, rosiglitazone]
HDL Baseline ([3]; TG baseline range 200-500): 38 | HDL Endpoint ([3]; TG baseline range 200-500): 40 | LDL Baseline ([3]; TG baseline range 200-500): 99 | LDL Endpoint ([3]; TG baseline range 200-500): 129 | Non-HDL Cholesterol Total Endpoint ([3]; TG baseline range 200-500): 59 | Triglycerides % reduction from baseline ([3]; TG baseline range 200-500): 0.1% | Triglycerides Baseline ([3]; TG baseline range 200-500): 294 | Triglycerides Endpoint ([3]; TG baseline range 200-500): 291 | HDL Baseline ([3]; TG baseline range 300-500): 38 | HDL Endpoint ([3]; TG baseline range 300-500): 41 | Non-HDL Cholesterol Total % reduction from baseline ([3]; TG baseline range 300-500): −17% | Non-HDL Cholesterol Total Baseline ([3]; TG baseline range 300-500): 177 | Non-HDL Cholesterol Total Endpoint ([3]; TG baseline range 300-500): 207 | Triglycerides % reduction from baseline ([3]; TG baseline range 300-500): 9% | Triglycerides Baseline ([3]; TG baseline range 300-500): 376 | Triglycerides Endpoint ([3]; TG baseline range 300-500): 341 | HDL Baseline ([3]; TG baseline range 500-1000): 39 | HDL Endpoint ([3]; TG baseline range 500-1000): 38 | Non-HDL Cholesterol Total Baseline ([3]; TG baseline range 500-1000): 231 | Non-HDL Cholesterol Total Endpoint ([3]; TG baseline range 500-1000): 261 | Triglycerides Baseline ([3]; TG baseline range 500-1000): 572 | Triglycerides Endpoint ([3]; TG baseline range 500-1000): 649 | effect on DDL parameters compared with LANTUS ([3]; in vivo): significantly inferior | effects on the abnormalities of DDL (abnormalities of DDL): almost no effect

NPH insulin: a moderate- to long-acting insulin with a pronounced peak in plasma activity
time of pronounced peak in plasma activity / peak effect after injection [4]: 3 to 6 h

Source: patent US8809270B2, “Method for reducing cardiovascular morbidity and mortality in prediaetic patients and patients with type 2 diabetes” (priority 2003, dated 2014)
